Patent publication US9657057B2, “Dipeptide and tripeptide epoxy ketone protease inhibitors” (Onyx Therapeutics, Inc., priority 2013, dated 2017)
Values after ≈ are worked out from the molar mass of the structure shown. Values joined by “and” are separate entries in the source; they are usually repeats but may differ in a detail not shown here. Equal entries are not always repeated.

Tests used:
Solubility pH 7 = assay type: physicochemical; details: pH 7, aqueous buffer
[1] = target: i20S (20S immunoproteasome) (Homo sapiens, UniProt P20618+P28062); assay: 20S proteasome assay, chymotrypsin-like activity (LLVY), i20S; assay type: biochemical; details: LLVY i20S Hu 1 h CONT: IC50 (nM), succinyl-Leu-Leu-Val-Tyr-AMC
Description: (§1) Assay buffer consisted of TE buffer [20 mmol/L Tris (pH 8.0), 0.5 mmol/L EDTA] with (20S) or without (cell lysate) 0.03% SDS. Reactions were initiated by enzyme or lysate addition and monitored for AMC product formation at 27jC with a plate-based spectofluorometer (Tecan).

β5 = target: T1, β5 (Homo sapiens, UniProt P20618+P28074); assay: ProCISE proteasome subunit assay, β5; assay type: biochemical
T1 construct: endogenous in cells; host or cells: MOLT-4
How it was run: (§2)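 MOLT-4 cell lysate was incubated with compound for 1 h at 25° C, then a subunit-binding probe was applied; probe-bound subunits were pulled down on streptavidin beads after guanidine denaturation and detected with subunit-specific antibodies by HRP chemiluminescence. Signal was normalized to protein and expressed as percent of DMSO control to fit IC50.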

[2] = target: c20S (constitutive 20S proteasome) (Homo sapiens, UniProt P20618+P28074); assay: 20S proteasome assay, chymotrypsin-like activity (LLVY), c20S; assay type: biochemical; details: LLVY c20S Hu 1 h CONT: IC50 (nM), succinyl-Leu-Leu-Val-Tyr-AMC
Description: as §1

LMP7 = target: T2, LMP7 (Homo sapiens, UniProt P20618+P28062); assay: ProCISE proteasome subunit assay, LMP7; assay type: biochemical
T2 construct: endogenous in cells; host or cells: MOLT-4
How it was run: as §2

| SMILES | solubility (Solubility pH 7) | IC50 [1] | IC50 (β5; MOLT4 lysate Hu 1 h) | IC50 [2] | IC50 (LMP7; MOLT4 lysate Hu 1 h) | IC50 (β5; ProCISE beta5 MOLT4 lysate Hu 1 h CONT: IC50 (nM)) | IC50 (LMP7; ProCISE LMP7 MOLT4 lysate Hu 1 h CONT: IC50 (nM)) |
| --- | --- | --- | --- | --- | --- | --- | --- |
| COc1ccc(C[C@H](NC(=O)[C@@H](C)NC(=O)C2=CCCC2)C(=O)N[C@@H](CC2CCCC2)C(=O)[C@@]2(C)CO2)cc1 [Compound C-2037, N—((R)-1-(((S)-1-(((S)-3-cyclopentyl-1-((R)-2-methyloxiran-2-yl)-1-oxopropan-2-yl)amino)-3-(4-methoxyphenyl)-1-oxopropan-2-yl)amino)-1-oxopropan-2-yl)cyclopent-1-enecarboxamide] | 3.6 µg/mL (≈ 6.67 µM) | 891 nM | 9630 nM | 6080 nM | 466 nM |  |  |
| COc1ccc(C[C@H](NC(=O)[C@@H](C)NC(=O)c2nc3ccccc3n2C)C(=O)N[C@@H](CC2CCCC2)C(=O)[C@@]2(C)CO2)cc1 [Compound C-2038, N—((R)-1-(((S)-1-(((S)-3-cyclopentyl-1-((R)-2-methyloxiran-2-yl)-1-oxopropan-2-yl)amino)-3-(4-methoxyphenyl)-1-oxopropan-2-yl)amino)-1-oxopropan-2-yl)-1-methyl-1H-benzo[d]imidazole-2-carboxamide] | 1.8 µg/mL (≈ 2.98 µM) | 722 nM and 649 nM | 2700 nM | 3550 nM and 7630 nM | 286 nM |  |  |
| COc1ccc(C[C@H](NC(=O)[C@@H](C)NC(=O)C2=C(C)c3ccccc3C2)C(=O)N[C@@H](CC2CCCC2)C(=O)[C@@]2(C)CO2)cc1 [Compound C-2040, N—((R)-1-(((S)-1-(((S)-3-cyclopentyl-1-((R)-2-methyloxiran-2-yl)-1-oxopropan-2-yl)amino)-3-(4-methoxyphenyl)-1-oxopropan-2-yl)amino)-1-oxopropan-2-yl)-3-methyl-1H-indene-2-carboxamide] | 0.3 µg/mL (≈ 0.499 µM) | 624 nM | 3750 nM | 4610 nM | 75 nM |  |  |
| COc1ccc(C[C@H](NC(=O)[C@@H](C)NC(=O)C[C@@H](C)O)C(=O)N[C@@H](CC2CCCC2)C(=O)[C@@]2(C)CO2)cc1 [Compound C-2042, (R)—N—((R)-1-(((S)-1-(((S)-3-cyclopentyl-1-((R)-2-methyloxiran-2-yl)-1-oxopropan-2-yl)amino)-3-(4-methoxyphenyl)-1-oxopropan-2-yl)amino)-1-oxopropan-2-yl)-3-hydroxybutanamide] | 1830 µg/mL (≈ 3450 µM) | 336 nM | 5920 nM | 9450 nM | 621 nM |  |  |
| COc1ccc(C[C@H](NC(=O)[C@@H](C)NC(=O)C[C@H](C)O)C(=O)N[C@@H](CC2CCCC2)C(=O)[C@@]2(C)CO2)cc1 [Compound C-2043, (S)—N—((R)-1-(((S)-1-(((S)-3-cyclopentyl-1-((R)-2-methyloxiran-2-yl)-1-oxopropan-2-yl)amino)-3-(4-methoxyphenyl)-1-oxopropan-2-yl)amino)-1-oxopropan-2-yl)-3-hydroxybutanamide] | 2380 µg/mL (≈ 4480 µM) | 271 nM | 11000 nM | 15100 nM | 593 nM |  |  |
| COc1ccc(C[C@H](NC(=O)[C@@]2(C)CCC(=O)N2)C(=O)N[C@@H](Cc2ccccc2)C(=O)[C@@]2(C)CO2)cc1 [Compound C-3010, (R)—N—((S)-3-(4-methoxyphenyl)-1-(((S)-1-((R)-2-methyloxiran-2-yl)-1-oxo-3-phenylpropan-2-yl)amino)-1-oxopropan-2-yl)-2-methyl-5-oxopyrrolidine-2-carboxamide] | 1380 µg/mL (≈ 2720 µM) | 1610 nM | 4300 nM | 4080 nM | 1160 nM |  |  |
| COc1ccc(C[C@H](NC(=O)[C@H]2CCC(=O)N2)C(=O)N[C@@H](Cc2ccccc2)C(=O)[C@@]2(C)CO2)cc1 [Compound C-3012, (R)—N—((S)-3-(4-methoxyphenyl)-1-(((S)-1-((R)-2-methyloxiran-2-yl)-1-oxo-3-phenylpropan-2-yl)amino)-1-oxopropan-2-yl)-5-oxopyrrolidine-2-carboxamide] | 4410 µg/mL (≈ 8930 µM) | 4790 nM | 6040 nM | 14500 nM | 2750 nM |  |  |

The remaining molecules from weak to strong by IC50 [1], led by results:

| solubility (Solubility pH 7) | IC50 [1] | IC50 (β5; MOLT4 lysate Hu 1 h) | IC50 [2] | IC50 (LMP7; MOLT4 lysate Hu 1 h) | IC50 (β5; ProCISE beta5 MOLT4 lysate Hu 1 h CONT: IC50 (nM)) | IC50 (LMP7; ProCISE LMP7 MOLT4 lysate Hu 1 h CONT: IC50 (nM)) | SMILES |
| --- | --- | --- | --- | --- | --- | --- | --- |
| 160 µg/mL (≈ 250 µM) | 102 nM | 2940 nM | 1290 nM | 220 nM |  |  | COc1ccc(C[C@H](NC(=O)[C@@H](CN2CCOCC2)NC(=O)c2cc(C)no2)C(=O)N[C@@H](CC2CCCC2)C(=O)[C@@]2(C)CO2)cc1 [Compound C-2045, N—((R)-1-(((S)-1-(((S)-3-cyclopentyl-1-((R)-2-methyloxiran-2-yl)-1-oxopropan-2-yl)amino)-3-(4-methoxyphenyl)-1-oxopropan-2-yl)amino)-3-morpholino-1-oxopropan-2-yl)-3-methylisoxazole-5-carboxamide] |
| 1.4 µg/mL (≈ 2.3 µM) | 55.2 nM |  | 411 nM |  | 379 nM | 48.6 nM | COc1ccc(C[C@H](NC(=O)[C@@H](C)NC(=O)C2=C(C)c3ccccc3C2)C(=O)N[C@@H](Cc2ccccc2)C(=O)[C@@]2(C)CO2)cc1 [Compound C-2048, N—((R)-1-(((S)-3-(4-methoxyphenyl)-1-(((S)-1-((R)-2-methyloxiran-2-yl)-1-oxo-3-phenylpropan-2-yl)amino)-1-oxopropan-2-yl)amino)-1-oxopropan-2-yl)-3-methyl-1H-indene-2-carboxamide] |
| 122 µg/mL (≈ 204 µM) | 55 nM | 670 nM | 723 nM | 75 nM |  |  | COc1ccc(C[C@H](NC(=O)[C@@H](C)NC(=O)CC(C)(O)C(F)(F)F)C(=O)N[C@@H](CC2CCCC2)C(=O)[C@@]2(C)CO2)cc1 (stereo partly drawn) [Compound C-2054, N—((R)-1-(((S)-1-(((S)-3-cyclopentyl-1-((R)-2-methyloxiran-2-yl)-1-oxopropan-2-yl)amino)-3-(4-methoxyphenyl)-1-oxopropan-2-yl)amino)-1-oxopropan-2-yl)-4,4,4-trifluoro-3-hydroxy-3-methylbutanamide] |
| 6160 µg/mL (≈ 10400 µM) | 49.2 nM | 595 nM | 521 nM | 67.1 nM |  |  | C[C@@H](NC(=O)CC(C)(C)O)C(=O)N[C@@H](Cc1ccc(S(C)(=O)=O)cc1)C(=O)N[C@@H](CC1CCCC1)C(=O)[C@@]1(C)CO1 [Compound C-2050, N—((R)-1-(((S)-1-(((S)-3-cyclopentyl-1-((R)-2-methyloxiran-2-yl)-1-oxopropan-2-yl)amino)-3-(4-(methylsulfonyl)phenyl)-1-oxopropan-2-yl)amino)-1-oxopropan-2-yl)-3-hydroxy-3-methylbutanamide] |
| 241 µg/mL (≈ 430 µM) | 34 nM | 883 nM | 459 nM | 54.3 nM |  |  | CC[C@](C)(O)CC(=O)N[C@H](C)C(=O)N[C@@H](Cc1ccc(OC)cc1)C(=O)N[C@@H](CC1CCCC1)C(=O)[C@@]1(C)CO1 [Compound C-2051, (S)—N—((R)-1-(((S)-1-(((S)-3-cyclopentyl-1-((R)-2-methyloxiran-2-yl)-1-oxopropan-2-yl)amino)-3-(4-methoxyphenyl)-1-oxopropan-2-yl)amino)-1-oxopropan-2-yl)-3-hydroxy-3-methylpentanamide] |
| 3730 µg/mL (≈ 6730 µM) | 28.9 nM | 291 nM | 191 nM | 52.2 nM |  |  | COc1ccc(C[C@H](NC(=O)[C@@H](C)NC(=O)CC(C)(C)O)C(=O)N[C@@H](Cc2ccccc2)C(=O)[C@@]2(C)CO2)cc1 [Compound C-2056, 3-hydroxy-N—((R)-1-(((S)-3-(4-methoxyphenyl)-1-(((S)-1-((R)-2-methyloxiran-2-yl)-1-oxo-3-phenylpropan-2-yl)amino)-1-oxopropan-2-yl)amino)-1-oxopropan-2-yl)-3-methylbutanamide] |
| 3010 µg/mL (≈ 5390 µM) | 17.3 nM | 368 nM | 201 nM | 60.4 nM |  |  | COc1ccc(C[C@H](NC(=O)[C@@H](C)NC(=O)CC(C)(C)O)C(=O)N[C@@H](CC2=CCCC2)C(=O)[C@@]2(C)CO2)cc1O [Compound C-2060, N—((R)-1-(((S)-1-(((S)-3-(cyclopent-1-en-1-yl)-1-((R)-2-methyloxiran-2-yl)-1-oxopropan-2-yl)amino)-3-(3-hydroxy-4-methoxyphenyl)-1-oxopropan-2-yl)amino)-1-oxopropan-2-yl)-3-hydroxy-3-methylbutanamide] |
| 2450 µg/mL (≈ 4360 µM) | 15.9 nM | 534 nM | 246 nM | 71 nM |  |  | COc1ccc(C[C@H](NC(=O)[C@@H](C)NC(=O)CC(C)(C)O)C(=O)N[C@@H](CC2CCCC2)C(=O)[C@@]2(C)CO2)cc1O [Compound C-2059, N—((R)-1-(((S)-1-(((S)-3-cyclopentyl-1-((R)-2-methyloxiran-2-yl)-1-oxopropan-2-yl)amino)-3-(3-hydroxy-4-methoxyphenyl)-1-oxopropan-2-yl)amino)-1-oxopropan-2-yl)-3-hydroxy-3-methylbutanamide] |
| 160 µg/mL (≈ 286 µM) | 10.8 nM | 560 nM | 316 nM | 38.5 nM |  |  | CC[C@@](C)(O)CC(=O)N[C@H](C)C(=O)N[C@@H](Cc1ccc(OC)cc1)C(=O)N[C@@H](CC1CCCC1)C(=O)[C@@]1(C)CO1 [Compound C-2052, (R)—N—((R)-1-(((S)-1-(((S)-3-cyclopentyl-1-((R)-2-methyloxiran-2-yl)-1-oxopropan-2-yl)amino)-3-(4-methoxyphenyl)-1-oxopropan-2-yl)amino)-1-oxopropan-2-yl)-3-hydroxy-3-methylpentanamide] |
